Structures can show the parent of a compound that is named as a salt.
Columns and labels:
[1] = tested on: Cladosporium cucumerinum; experiment: Mycelial growth test; type: cell-based; details: CC; for Percent Fungus Growth Inhibition: 72 hours; for inhibition at 5 ppm / inhibition at 10 ppm / inhibition at 40 ppm / inhibition at 20 ppm: Cladosporium cucumerinum, read-out: Percent Fungus Growth Inhibition; for inhibition at 5 ppm / inhibition at 10 ppm / inhibition at 40 ppm: 72 h; for inhibition at 20 ppm: CC20, 72 h
Source text: |CC = Cladosporium cucumerinum

[2] = tested on: Cladosporium cucumerinum; experiment: Spore germination test; type: cell-based; details: CC, 48 hours
Procedure: CC = Cladosporium cucumerinum
The test chemical was dissolved or suspended in acetone in an amount such that 0.8 ml of the resulting suspension or solution, mixed with 40 ml water agar produced a water agar solution containing 40, 10, 2.5 and 1 ppm of test chemical. The resulting agar solution, at 50° C., was then divided equally between two sterile petri dishes, each having four separated quadrants, and allowed to solidify. […] quadrants of each dish were flooded with 0.1 ml of a spore suspension in sterile water. Spores of two pathogens, Erysiphe polygoni and Uromyes phaseoli, from infected plant leaves, were brushed on the remaining two quadrants. The tests were then incubated 48 hours, at 24° C.
Readings were then taken and the percentage of germinated spores calculated. From this percentage, a spore germination rating was assigned as follows: […]

[3] = tested on: Pyricularia oryzae; experiment: whole plant or invertebrate; type: in vivo; details: for Percent Disease Control, curative, rice blast: 150 ppm, 24 hours after inoculation; for pest or weed control at 150 ppm: Pyricularia oryzae, foliar, 24 h, read-out: Percent Disease Control, curative, rice blast, 150 ppm, 24 hours after inoculation
[4] = tested on: Erysiphe polygoni; experiment: whole plant or invertebrate; details: foliar, 24 h, read-out: Percent Disease Control, curative, bean powdery mildew

Row | Compound | Percent Fungus Growth Inhibition ([1]; 5 ppm) | Percent Fungus Growth Inhibition ([1]; 10 ppm) | Percent Fungus Growth Inhibition ([1]; 20 ppm) | Percent Fungus Growth Inhibition ([1]; 40 ppm) | Spore Germination Rating ([2]; 1.0 ppm) | Spore Germination Rating ([2]; 2.5 ppm) | Spore Germination Rating ([2]; 10 ppm) | Spore Germination Rating ([2]; 40 ppm) | Percent Disease Control, curative, rice blast [3] | inhibition at 5 ppm ([1]; 5 ppm) | inhibition at 10 ppm ([1]; 10 ppm) | inhibition at 40 ppm ([1]; 40 ppm) | inhibition at 20 ppm ([1]; 20 ppm) | pest or weed control at 150 ppm [4] | pest or weed control at 150 ppm [3] | Percent Fungus Growth Inhibition ([1]; 5 ppm, hydrochloride) | Percent Fungus Growth Inhibition ([1]; 10 ppm, hydrochloride) | Percent Fungus Growth Inhibition ([1]; 40 ppm, hydrochloride) | Percent Disease Control, curative, rice blast ([3]; hydrochloride)
1 | 3-chloro-5-(bromophenoxy)-4H-1,2,6-thiadiazin-4-one [Compound 33] | 11% | 28% | 61% | 83% | 0 (0-10) | 0 (0-10) | 0 (0-10) | 0 (0-10) | 0% |  |  |  |  |  |  |  |  |  | 
2 | 3-chloro-5-[methylaminocarbonyloxy)phenoxyl]-4H-1,2,6-thiadiazin-4-one [Compound 36] | 0% | 8% | 38% | 62% | 4 (80-100) | 3 (60-80) |  | 0 (0-10) | 95% |  |  |  |  |  |  |  |  |  | 
3 | O=c1c(Cl)nsnc1Oc1ccccc1 [Compound 2, 3-chloro-5-phenoxy-4H--1,2,6-thiadiazin-4-one] |  |  |  |  | 4 (80-100) | 4 (80-100) | 0 (0-10) | 0 (0-10) |  | 46% | 58% | 100% | 100% | 100% | 0% |  |  |  | 
4 | Cc1ccc(Oc2nsnc(Cl)c2=O)cc1 [Compound 3, 3-chloro-5-(4-methylphenoxy)-4H--1,2,6-thiadiazin-4-one] |  |  |  |  | 4 (80-100) | 4 (80-100) | 0 (0-10) | 0 (0-10) |  | 58% | 67% | 100% | 100% | 0% | 0% |  |  |  | 
5 | CC(C)(C)c1ccc(Oc2nsnc(Cl)c2=O)cc1 [Compound 4, 3-chloro-5-(4-tert-butylphnoxy)-4H--1,2,6-thiadiazin-4-one] |  |  |  |  | 4 (80-100) | 4 (80-100) | 0 (0-10) | 0 (0-10) |  | 0% | 9% | 45% | 27% | 100% | 95% |  |  |  | 
6 | COc1ccc(Oc2nsnc(Cl)c2=O)cc1 [Compound 5, 3-chloro-5-(4-methoxyphenoxy)4H--1,2,6-thiadiazin-4-one] |  |  |  |  | 4 (80-100) | 4 (80-100) | 0 (0-10) | 0 (0-10) |  | 50% | 75% | 100% | 100% | 0% | 75% |  |  |  | 
7 | CCCCOc1ccc(Oc2nsnc(Cl)c2=O)cc1 [Compound 6, 3-chloro-5-(4-n-butoxyphenoxy)-4H--1,2,6-thiadiazin-4-one] |  |  |  |  | 0 (0-10) | 0 (0-10) | 0 (0-10) | 0 (0-10) |  | 0% | 0% | 45% | 0% | 100% | 0% |  |  |  | 
8 | CCOC(=O)c1ccc(Oc2nsnc(Cl)c2=O)cc1 [Compound 7, 3-chloro-5-(4-ethoxycarbonylphenoxy)-4H--1,2,6-thiadiazin-4-one] |  |  |  |  | 0 (0-10) | 0 (0-10) | 0 (0-10) | 1 (10-40) |  | 9% | 36% | 100% | 100% | 0% | 0% |  |  |  | 
9 | CC(=O)Nc1ccc(Oc2nsnc(Cl)c2=O)cc1 [Compound 8, 5-(4-acetylaminophenoxy)-3-chloro-4H--1,2,6-thiadiazin-4-one] |  |  |  |  | 4 (80-100) | 3 (60-80) | 0 (0-10) | 0 (0-10) |  | 50% | 58% | 100% | 67% | 0% | 0% |  |  |  | 
10 | O=c1c(Cl)nsnc1Oc1ccc([N+](=O)[O-])cc1 [Compound 9, 3-chloro-5-(4-nitrophenoxy)-4H--1,2,6-thiadiazin-4-one] |  |  |  |  | 0 (0-10) | 0 (0-10) | 0 (0-10) | 0 (0-10) |  | 54% | 75% | 100% | 92% | 0% | 90% |  |  |  | 
11 | N#Cc1ccc(Oc2nsnc(Cl)c2=O)cc1 [Compound 10, 3-chloro-5-(4-cyanophenoxy)-4H--1,2,6-thiadiazin-4-one] |  |  |  |  | 0 (0-10) | 0 (0-10) | 0 (0-10) | 0 (0-10) |  | 9% | 45% | 100% | 100% | 0% | 0% |  |  |  | 
12 | O=c1c(Cl)nsnc1Oc1ccc(F)cc1 [Compound 11, 3-chloro-5-(4-fluorophenoxy)-4H--1,2,6-thiadiazin-4-one] |  |  |  |  | 0 (0-10) | 0 (0-10) | 0 (0-10) | 0 (0-10) |  | 27% | 64% | 100% | 100% | 100% | 0% |  |  |  | 
13 | O=c1c(Cl)nsnc1Oc1ccc(Cl)cc1 [Compound 12, 3-chloro-5-(4-chlorophenoxy)-4H--1,2,6-thiadiazin-4-one] |  |  |  |  | 2 (40-60) | 0 (0-10) | 0 (0-10) | 0 (0-10) |  | 63% | 58% | 100% | 71% | 50% | 75% |  |  |  | 
14 | O=c1c(Cl)nsnc1Oc1cccc(Cl)c1 [Compound 13, 3-chloro-5-(3-chlorophenoxy)-4H--1,2,6-thiadiazin-4-one] |  |  |  |  | 2 (40-60) | 0 (0-10) | 0 (0-10) | 0 (0-10) |  | 58% | 67% | 100% | 100% | 100% | 0% |  |  |  | 
15 | O=c1c(Cl)nsnc1Oc1ccccc1Cl [Compound 14, 3-chloro-5-(2-chlorophenoxy)-4H--1,2,6-thiadiazin-4-one] |  |  |  |  | 4 (80-100) | 0 (0-10) | 0 (0-10) | 0 (0-10) |  | 67% | 50% | 100% | 100% | 50% | 0% |  |  |  | 
16 | O=c1c(Cl)nsnc1Oc1ccc(Br)cc1 [Compound 15, 3-chloro-5-(4-bromophenoxy)-4H--1,2,6-thiadiazin-4-one] |  |  |  |  | 0 (0-10) | 0 (0-10) | 0 (0-10) | 0 (0-10) |  | 9% | 55% | 100% | 82% | 100% | 95% |  |  |  | 
17 | O=c1c(Cl)nsnc1Oc1ccc(Cl)c(Cl)c1 [Compound 16, 3-chloro-5-(3,4-dichlorophenoxy)-4H--1,2,6-thiadiazin-4-one] |  |  |  |  | 0 (0-10) | 0 (0-10) | 0 (0-10) | 0 (0-10) |  | 58% | 54% | 75% | 67% | 0% | 90% |  |  |  | 
18 | O=c1c(Cl)nsnc1Oc1cccc(Cl)c1Cl [Compound 19, 3-chloro-5-(2,3-dichlorophenoxy)-4H--1,2,6-thiadiazin-4-one] |  |  |  |  | 2 (40-60) | 0 (0-10) | 0 (0-10) | 0 (0-10) |  | 100% | 100% | 100% | 100% |  | 0% |  |  |  | 
19 | Nc1ccc(Oc2nsnc(Cl)c2=O)cc1 [Compound 27, 5-(4-aminophenoxy)-3-chloro-4H--1,2,6-thiadiazine-4-one hydrochloride] |  |  |  |  |  |  |  |  |  |  |  |  |  |  |  | 31% | 40% | 54% | 95%
20 | Cc1cc(Oc2nsnc(Cl)c2=O)cc(C)c1Cl [Compound 59, 3-chloro-5-[(4-chloro-3,5-dimethyl)phenoxy]-4H--1,2,6-thiadiazin-4-one] |  |  |  |  | 1 (10-40) | 0 (0-10) | 0 (0-10) | 0 (0-10) |  | 28% | 42% | 61% | 47% |  | 0% |  |  |  | 
21 | Cc1cc(Oc2nsnc(Cl)c2=O)cc(C)c1Br [Compound 60, 3-[(4-bromo-3,5-dimethyl)-phenoxy]-5-chloro-4H--1,2,6-thiadiazin-4-one] |  |  |  |  | 0 (0-10) | 0 (0-10) | 0 (0-10) | 0 (0-10) |  | 33% | 36% | 47% | 44% |  | 0% |  |  |  | 

From patent publication US4450269A, “Mono-5-substituted-3-chloro-4H-1,2,6-thiadiazin-4-one antifungal agents” (FMC Corporation, priority 1980, dated 1984)
